The values below come from patent US20220257774A1, “AROMATIC AMINE AR AHD BET TARGETING PROTEIN DEGRADATION CHIMERA COMPOUND AND USE” (HINOVA PHARMACEUTICALS INC., priority 2019, published 2022).

Type in all cases: cell-based
The test system of assay [1] is Androgen receptor (AR). Description: Down-regulation/degradation of AR determined by Western blot in CWR22RV1 cells. Particulars: concentration 100 nM, 24 h. The method, then: (§1) The Down-Regulation on the Protein Expression of Androgen Receptors AR and Brd4 Determined by Western Blot CWR22RV1 cells (National Collection of Authenticated Cell Cultures. TCHu100) FBS (Gibco, Cat. No. 10099-141) 0.01M PBS (Biosharp. Cat. No. 162262) RIPM1640 (Hyclone, Cat. No. 308090.01) Penicillin-Streptomycin (Hyclone. Cat. No. SV30010) DMSO (Sigma. Cat. No. D5879) Centrifuge tube, 15 ml (Excell Bio. Cat. No. CS015-0001) Cell culture plate (Excell Bio. Cat. No. CS016-0128) 6-well cell culture cluster (Corning, Cat. No. 3516) RIPA lysate buffer (Beyotime, Cat. No. P0013B) Protein loading buffer (Beyotime, Cat. No. P0015L) CA protein assay kit (Beyotime, Cat. No. P0012) SDS-PAGE gel preparation kit (Chengdu Baihe Technology Co., Ltd. Cat. No. PG112) Anti-β-tubulin mouse mAb (Zen Bioscience, Cat. No. 200608) Androgen Receptor ([…]) XP Rabbit mAb (CST. Cat. No. 5153) Anti-cMyc(D3N8F) Rabbit mAb (CST. Cat. No. 13987) Anti-BRD4(E2A7X) rabbit mAb (CST, Cat. No. 13440) Peroxidase Affinipure(HRP) Goat Anti-Mouse IgG (Zen Bioscience, Cat. No. 511103) Peroxidase Affinipure(HRP) Goat Anti-Rabbit IgG (Zen Bioscience, Cat. No. 511203) TBST (Biosharp. Cat. No. B[…]) ECL chemiluminescence kit (Beyotime, Cat. No. […]1 cells were subcultured in cell culture media, and then the cells in good growth condition were seeded in a 6-well plate at 2 ml/well (1×10^6 cells/well), and cultured overnight in a 37° C., 5% CO2 cell incubator. 2) The drug was prepared as a 10 mM stock solution with dimethyl sulfoxide (DMSO). […] The plate was gently tapped to thoroughly mix. In addition, the experiment included negative control wells (containing equal amount of DMSO) and positive control wells. 3) After culturing 24 hi, the cells were lysed with RIPA cell lysate, and the protein was extracted. […] The first antibody (Androgen Receptor ([…]) XP Rabbit mAb. Anti-cMyc(D3N8F) Rabbit mAb, Anti-BRD4(E2A7X) rabbit mAb and Anti-β-Tubulin Mouse mAb) was added and incubated overnight at 4° C. The membrane was rinsed with TBST solution three times, 10 min for each time. The secondary antibody (horseradish peroxidase labeled goat anti mouse IgG) was added and incubated at room temperature for 2 h, and then the membrane was washed with TBST solution three times, 10 m for each time. Finally. ECL chemiluminescence solution was added, and then photos were taken with automatic chemiluminescence instrument to collect pictures for analysis.
For orientation: In western blotting, separated proteins are transferred to a membrane and probed.

Assay [2] relates to 22RV1 cells. In words: Inhibition of the proliferation of drug-resistant prostate cancer cell 22RV1 (CCK-8). The note with it: Homo sapiens; 22RV1 cells (enzalutamide-resistant), same method. The method, boiled down: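 22RV1 cells, 1000/well in RPMI1640 with 10% FBS, treated in duplicate with 9-point 3-fold dilutions from 10 μM (0.1% DMSO final). After 6 days at 37 °C, CCK-8 added for 1 h and OD450 read. IC50 from dose-response inhibition fit.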

Assay [3] concerns LNCaP/AR cells. Description: Inhibition of the proliferation of LNCap/AR cells (CCK-8). The note with it: 144 h, read-out: LNCap/AR IC50. The procedure, abridged:
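LNCaP/AR cells (1000/well, RPMI1640 + 10% FBS) were treated for 6 days at 37 °C with 9-point 3-fold dilutions from 10 μM final, 0.1% DMSO, in duplicate. Viability was read by CCK-8 absorbance at 450 nm after 1 h, and IC50 came from a dose-response-inhibition fit.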

Assay [4] has as its target T1, BRD4 (Homo sapiens, UniProt O60885).
T1 construct: CWR22RV1 cells were subcultured in cell culture media; endogenous in cells; host or cells: CWR22RV1 cells
In words: Down-regulation/degradation of BRD4 determined by Western blot in CWR22RV1 cells. Particulars: concentration 100 nM, 24 h. Here is the method:
as §1

Setting [5] is: LNCaP/AR cells, 6 days culture, CCK-8.

Molecules are shown by their SMILES. Where two headings read alike, the source gives them in different places. Bounds are passed on as bounds.

With `Cc1ccc(-c2c(C)noc2C)cc1N(CCCCNc1ccc2c(c1)C(=O)N(C1CCC(=O)NC1=O)C2=O)c1ccc(C#N)c(Cl)c1` (stereo not drawn) [Compound 165, 2-Chloro-4-((5-(3,5-dimethylisoxazol-4-yl)-2-methylphenyl)(4-((2-(2,6-dioxopiperidin-3)-1,3-dioxyisoindolin-5-yl)amino)butyl)amino)benzonitrile], the “AR (% degradation)” value in assay [1] is “C (49%-20% of the target protein was degraded)”. In addition, the values for the IC50 in assay [2] and in assay [3] (LNCaP/AR) were greater than 2000 nM and 501 to 2000 nM, respectively. The “BRD4 (% degradation)” value in assay [4] was “A (>80% of the target protein was degraded)”.
`Cc1ccc(-c2c(C)noc2C)cc1N(C[C@H]1CC[C@H](CNc2cc3c(cc2F)CN(C2CCC(=O)NC2=O)C3=O)CC1)c1ccc(C2(C#N)CC2)cc1` (stereo partly drawn) [Compound 168]: in assay [1], the “AR (% degradation)” value is listed as “C (49%-20% of the target protein was degraded)”. Besides, the IC50 in assay [2] and in assay [3] (setting [5]) was less than 100 nM in each case. Besides, in assay [4], the “BRD4 (% degradation)” value is given as “A (>80% of the target protein was degraded)”.
Take `Cc1ccc(-c2c(C)noc2C)cc1N(C[C@H]1CC[C@H](CNc2cc3c(cc2F)C(=O)N(C2CCC(=O)NC2=O)C3)CC1)c1ccc(C2(C#N)CC2)cc1` (stereo partly drawn) [Compound 169]: the “AR (% degradation)” value in assay [1] was “C (49%-20% of the target protein was degraded)”. For the same molecule, the results for the IC50 in assay [2] and in assay [3] (setting [5]) were less than 100 nM and 101 to 500 nM, respectively. Further, the “BRD4 (% degradation)” value in assay [4] is “B (79%-50% of the target protein was degraded)”.
For `Cc1ccc(-c2c(C)noc2C)cc1N(CCCNc1ccc2c(c1)C(=O)N(C1CCC(=O)NC1=O)C2=O)c1ccc(C2(C#N)CC2)cc1` (stereo not drawn) [Compound 172, 1-(4-((5-(3,5-Dimethylisoxazol-4-yl)-2-methylphenyl)(3-((2-(2,6-dioxopiperidin-3-yl)-1,3-dioxoisoindolin-5-yl)amino)propyl)amino)phenyl)cyclopropane-1-nitrile], the “AR (% degradation)” value in assay [1] was “D (<20% of the target protein was degraded)”. Further, the IC50 was in the range of 101 to 500 nM in assay [2] and 501 to 2000 nM in assay [3] (setting [5]). The “BRD4 (% degradation)” value in assay [4] is reported as “D (<20% of the target protein was degraded)”.
For the molecule `Cc1ccc(-c2c(C)noc2C)cc1N(CC(C)OC1CN(c2ccc3c(c2)C(=O)N(C2CCC(=O)NC2=O)C3=O)C1)c1ccc(C2(C#N)CC2)cc1` (stereo not drawn) [Compound 174, 1-(4-((5-(3,5-Dimethylisoxazol-4-yl)-2-methylphenyl)(2-((1-(2-(2,6-dioxopiperidin-3-yl)-1,3-dioxoisoindolin-5-yl)azacyclobutane-3-yl)oxy)propyl)amino)phenyl)cyclopropane-1-nitrile], the “AR (% degradation)” value in assay [1] was “D (<20% of the target protein was degraded)”. For the same molecule, the IC50 in assay [2] is less than 100 nM; in assay [3] (setting [5]), 501 to 2000 nM. Further, in assay [4], the “BRD4 (% degradation)” value was “D (<20% of the target protein was degraded)”.
For `Cc1ccc(-c2c(C)noc2C)cc1N(CC(C)OC1CN(c2cc3c(cc2F)C(=O)N(C2CCC(=O)NC2=O)C3)C1)c1ccc(C2(C#N)CC2)cc1` (stereo not drawn) [Compound 178, 1-(4-((5-(3,5-dimethylisoxazol-4-yl)-2-methylphenyl)(2-((1-(2-(2,6-dioxopiperidin-3-yl)-6-fluoro-1-oxoisoindolin-5-yl)azetidin-3-yl)oxy)propyl)amino)phenyl)cyclopropane-1-nitrile], the “AR (% degradation)” value in assay [1] was “B (79%-50% of the target protein was degraded)”. Also, the IC50 in assay [2] and in assay [3] (setting [5]) was less than 100 nM in each case. In assay [4], the “BRD4 (% degradation)” value is reported as “A (>80% of the target protein was degraded)”.
For the molecule `Cc1ccc(-c2c(C)noc2C)cc1N(CC(C)OC1CN(c2ccc3c(c2)CN(C2CCC(=O)NC2=O)C3=O)C1)c1ccc(C2(C#N)CC2)cc1` (stereo not drawn) [Compound 180, 1-(4-((5-(3,5-dimethylisoxazol-4-yl)-2-methylphenyl)(2-((1-(2-(2,6-dioxopiperidin-3-yl)-1-oxoisoindolin-5-yl)azacyclobutane-3-yl)oxy)propyl)amino)phenyl)cyclopropane-1-nitrile], the “AR (% degradation)” value in assay [1] is “D (<20% of the target protein was degraded)”. Also, the IC50 in assay [2] and in assay [3] (setting [5]) was less than 100 nM each time. In addition, the “BRD4 (% degradation)” value in assay [4] is “A (>80% of the target protein was degraded)”.
With `Cc1ccc(-c2c(C)noc2C)cc1N(C[C@H]1CC[C@H](CNc2ccc3c(c2)C(=O)N(C2CCC(=O)NC2=O)C3)CC1)c1ccc(C2(C#N)CC2)cc1` (stereo partly drawn) [Compound 193], the “AR (% degradation)” value in assay [1] was “D (<20% of the target protein was degraded)”. The IC50 in assay [2] and in assay [3] (setting [5]) was less than 100 nM in each case. Also, the “BRD4 (% degradation)” value in assay [4] is “B (79%-50% of the target protein was degraded)”.
For the molecule `Cc1ccc(-c2c(C)noc2C)cc1N(C[C@H]1CC[C@H](CNc2ccc3c(c2)CN(C2CCC(=O)NC2=O)C3=O)CC1)c1ccc(C2(C#N)CC2)cc1` (stereo partly drawn) [Compound 194], in assay [1], the “AR (% degradation)” value is given as “D (<20% of the target protein was degraded)”. In addition, the results for the IC50 in assay [2] and in assay [3] (setting [5]) were less than 100 nM and 101 to 500 nM, respectively. Moreover, the “BRD4 (% degradation)” value in assay [4] was “D (<20% of the target protein was degraded)”.
